Data reported in ChEMBL document CHEMBL4184276, “Curcumin inspired 2-chloro/phenoxy quinoline analogues: Synthesis and biological evaluation as potential anticancer agents” (Bioorg Med Chem Lett, 2018).
Values belong to the molecule of their own block, whether it stands above or below them. Active and inactive are the calls of the source. No cut-off for these calls is given here.

How the values were obtained:
NCI-H460 [1] = assay: Cytotoxicity against human NCI-H460 cells assessed as reduction in cell viability after 48 hrs by MTT assay; type: functional, cell-based; settings: NCI-H460, 48 h
HGC-27 = assay: Cytotoxicity against human HGC27 cells assessed as reduction in cell viability after 48 hrs by MTT assay; type: functional, cell-based; settings: HGC-27, 48 h
PC-3 [2] = assay: Cytotoxicity against human PC3 cells assessed as reduction in cell viability after 48 hrs by MTT assay; type: functional, cell-based; settings: PC-3, 48 h
4T1 = assay: Cytotoxicity against mouse 4T1 cells assessed as reduction in cell viability after 48 hrs by MTT assay; type: functional, cell-based; settings: 4T1, 48 h
HeLa = assay: Cytotoxicity against human HeLa cells assessed as reduction in cell viability after 48 hrs by MTT assay; type: functional, cell-based
DU-145 [3] = assay: Cytotoxicity against human DU145 cells assessed as reduction in cell viability after 48 hrs by MTT assay; type: functional, cell-based; settings: DU-145, 48 h
PC-3 [4] = assay: Cell cycle arrest in human PC3 cells assessed as accumulation at G0/G1 phase at 4 uM after 24 hrs by propidium iodide staining based flow cytometry (reference value: 55.61%); type: functional
PC-3 [5] = assay: Induction of apoptosis in human PC3 cells assessed as live cells at 2 uM after 24 hrs by Annexin V-FITC/propidium iodide staining based flow cytometry (reference value: 84.82%); type: functional
PC-3 [6] = assay: Induction of apoptosis in human PC3 cells assessed as late apoptotic cells at 4 uM after 24 hrs by Annexin V-FITC/propidium iodide staining based flow cytometry (reference value: 7.8%); type: functional
PC-3 [7] = assay: Induction of apoptosis in human PC3 cells assessed as condensed and pyknotic nuclei formation at 4 uM after 24 hrs by DAPI staining based fluorescence microscopic method; type: functional, cell-based
PC-3 [8] = assay: Induction of apoptosis in human PC3 cells assessed as necrotic cells at 4 uM after 24 hrs by Annexin V-FITC/propidium iodide staining based flow cytometry (reference value: 0.28%); type: functional
PC-3 [9] = assay: Induction of apoptosis in human PC3 cells assessed as early apoptotic cells at 4 uM after 24 hrs by Annexin V-FITC/propidium iodide staining based flow cytometry (reference value: 7.1%); type: functional
PC-3 [10] = assay: Cell cycle arrest in human PC3 cells assessed as accumulation at sub-G1 phase at 2 uM after 24 hrs by propidium iodide staining based flow cytometry (reference value: 0.43%); type: functional
DU-145 [11] = assay: Potency index, ratio of curcumin IC50 to compound IC50 for human DU145 cells; type: functional
PC-3 [12] = assay: Induction of apoptosis in human PC3 cells assessed as necrotic cells at 2 uM after 24 hrs by Annexin V-FITC/propidium iodide staining based flow cytometry (reference value: 0.28%); type: functional
[13] = Aqueous solubility in milli-Q water at 2 mg incubated for 5 mins followed by sonication for 1 mins measured after 24 hrs by UV-Visible spectroscopic method; type: physicochemical
NCI-H460 [14] = assay: Potency index, ratio of curcumin IC50 to compound IC50 for human NCI-H460 cells; type: functional
PC-3 [15] = assay: Cell cycle arrest in human PC3 cells assessed as accumulation at G2/M phase after 24 hrs by propidium iodide staining based flow cytometry; type: functional
PC-3 [16] = assay: Cell cycle arrest in human PC3 cells assessed as accumulation at G2/M phase at 2 uM after 24 hrs by propidium iodide staining based flow cytometry (reference value: 34.49%); type: functional
PC-3 [17] = assay: Induction of apoptosis in human PC3 cells assessed as fragmentation of chromatin at 4 uM after 24 hrs by acridine orange/ethidium bromide staining based fluorescence microscopic method; type: functional, cell-based
PC-3 [18] = assay: Induction of apoptosis in human PC3 cells assessed as live cells at 4 uM after 24 hrs by Annexin V-FITC/propidium iodide staining based flow cytometry (reference value: 84.82%); type: functional
PC-3 [19] = assay: Induction of apoptosis in human PC3 cells assessed as early apoptotic cells at 2 uM after 24 hrs by Annexin V-FITC/propidium iodide staining based flow cytometry (reference value: 7.1%); type: functional
PC-3 [20] = assay: Cell cycle arrest in human PC3 cells assessed as accumulation at G2/M phase at 4 uM after 24 hrs by propidium iodide staining based flow cytometry (reference value: 34.49%); type: functional
PC-3 [21] = assay: Induction of apoptosis in human PC3 cells assessed as chromatin condensation at 1 uM after 24 hrs by acridine orange/ethidium bromide staining based fluorescence microscopic method; type: functional, cell-based
PC-3 [22] = assay: Cell cycle arrest in human PC3 cells assessed as accumulation at S phase at 2 uM after 24 hrs by propidium iodide staining based flow cytometry (reference value: 9.48%); type: functional
PC-3 [23] = assay: Potency index, ratio of curcumin IC50 to compound IC50 for human PC3 cells; type: functional
PC-3 [24] = assay: Cell cycle arrest in human PC3 cells assessed as accumulation at S phase at 4 uM after 24 hrs by propidium iodide staining based flow cytometry (reference value: 9.48%); type: functional
PC-3 [25] = assay: Induction of apoptosis in human PC3 cells assessed as cell membrane blebbing at 1 uM after 24 hrs by acridine orange/ethidium bromide staining based fluorescence microscopic method; type: functional
PC-3 [26] = assay: Induction of apoptosis in human PC3 cells assessed as non-uniform distribution of chromatin at 2 uM after 24 hrs by acridine orange/ethidium bromide staining based fluorescence microscopic method; type: functional, cell-based
PC-3 [27] = assay: Cell cycle arrest in human PC3 cells assessed as accumulation at sub-G1 phase at 4 uM after 24 hrs by propidium iodide staining based flow cytometry (reference value: 0.43%); type: functional
PC-3 [28] = assay: Induction of ROS generation in human PC3 cells at 1 to 2 uM after 24 hrs by DCFDA staining based flow cytometry; type: functional, cell-based
PC-3 [29] = assay: Cell cycle arrest in human PC3 cells assessed as accumulation at G0/G1 phase at 2 uM after 24 hrs by propidium iodide staining based flow cytometry (reference value: 55.61%); type: functional
PC-3 [30] = assay: Induction of apoptosis in human PC3 cells assessed as late apoptotic cells at 2 uM after 24 hrs by Annexin V-FITC/propidium iodide staining based flow cytometry (reference value: 7.8%); type: functional

Structure (SMILES): COc1ccc(/C=C/C(=O)/C=C/c2cc3ccccc3nc2Oc2cccc(Cl)c2)c(OC)c1
- IC50 (NCI-H460 [1]): > 10 µM
- IC50 (HGC-27): > 10 µM
- IC50 (PC-3 [2]): > 10 µM
- IC50 (4T1): > 10 µM
- IC50 (HeLa): > 10 µM
- IC50 (DU-145 [3]): > 10 µM

- solubility [13]: Soluble
Structure (SMILES): COc1cc(OC)c(OC)cc1/C=C/C(=O)/C=C/c1cc2ccccc2nc1Cl
- Activity (PC-3 [4]): 46.86%
- Activity (PC-3 [5]): 73.21%
- Activity (PC-3 [6]): 29.17%
- Activity (PC-3 [7]): Active
- IC50 (NCI-H460 [1]): 3.96 µM
- Activity (PC-3 [8]): 2.8%
- Activity (PC-3 [9]): 7.97%
- Activity (PC-3 [10]): 0.9%
- Ratio IC50 (DU-145 [11]): 8.3
- Activity (PC-3 [12]): 2.21%
- Ratio IC50 (NCI-H460 [14]): 4.3
- Activity (PC-3 [15]): Dose-dependent effect
- Activity (PC-3 [16]): 38.16%
- Activity (PC-3 [17]): Active
- Activity (PC-3 [18]): 60.06%
- Activity (PC-3 [19]): 6.07%
- Activity (PC-3 [20]): 45.74%
- Activity (PC-3 [21]): Active
- Activity (PC-3 [22]): 10.02%
- Ratio IC50 (PC-3 [23]): 6
- Activity (PC-3 [24]): 6.86%
- IC50 (HGC-27): 8.73 µM
- IC50 (PC-3 [2]): 3.12 µM
- IC50 (4T1): 1.81 µM
- Activity (PC-3 [25]): Active
- IC50 (HeLa): 5.41 µM
- IC50 (DU-145 [3]): 3.99 µM
- Activity (PC-3 [26]): Active
- Activity (PC-3 [27]): 0.6%
- Activity (PC-3 [28]): Active
- Activity (PC-3 [29]): 50.4%
- Activity (PC-3 [30]): 18.51%

Structure (SMILES): COc1ccc(/C=C/C(=O)/C=C/c2cc3ccccc3nc2Oc2ccc(Br)cc2)c(OC)c1
- IC50 (NCI-H460 [1]): > 10 µM
- IC50 (HGC-27): > 10 µM
- IC50 (PC-3 [2]): > 10 µM
- IC50 (4T1): > 10 µM
- IC50 (HeLa): > 10 µM
- IC50 (DU-145 [3]): > 10 µM

Structure (SMILES): COc1ccc(/C=C/C(=O)/C=C/c2cc3ccccc3nc2Cl)cc1
- IC50 (NCI-H460 [1]): > 10 µM
- IC50 (HGC-27): > 10 µM
- IC50 (PC-3 [2]): > 10 µM
- IC50 (4T1): > 10 µM
- IC50 (HeLa): > 10 µM
- IC50 (DU-145 [3]): > 10 µM

Structure (SMILES): COc1cc(OC)c(/C=C/C(=O)/C=C/c2cc3ccccc3nc2Oc2ccc(Br)cc2)c(OC)c1
- IC50 (NCI-H460 [1]): > 10 µM
- IC50 (HGC-27): > 10 µM
- IC50 (PC-3 [2]): > 10 µM
- IC50 (4T1): > 10 µM
- IC50 (HeLa): > 10 µM
- IC50 (DU-145 [3]): > 10 µM

Structure (SMILES): COc1ccc(OC)c(/C=C/C(=O)/C=C/c2cc3ccccc3nc2Oc2ccc(Br)cc2)c1
- IC50 (NCI-H460 [1]): > 10 µM
- IC50 (HGC-27): > 10 µM
- IC50 (PC-3 [2]): > 10 µM
- IC50 (4T1): > 10 µM
- IC50 (HeLa): > 10 µM
- IC50 (DU-145 [3]): > 10 µM

Structure (SMILES): COc1cc(OC)c(/C=C/C(=O)/C=C/c2cc3ccccc3nc2Cl)c(OC)c1
- IC50 (NCI-H460 [1]): > 10 µM
- IC50 (HGC-27): > 10 µM
- IC50 (PC-3 [2]): > 10 µM
- IC50 (4T1): > 10 µM
- IC50 (HeLa): > 10 µM
- IC50 (DU-145 [3]): > 10 µM

Structure (SMILES): COc1cc(OC)c(/C=C/C(=O)/C=C/c2cc3ccccc3nc2Oc2ccccc2)c(OC)c1
- IC50 (NCI-H460 [1]): > 10 µM
- IC50 (HGC-27): > 10 µM
- IC50 (PC-3 [2]): > 10 µM
- IC50 (4T1): > 10 µM
- IC50 (HeLa): > 10 µM
- IC50 (DU-145 [3]): > 10 µM

Structure (SMILES): COc1ccc(/C=C/C(=O)/C=C/c2cc3ccccc3nc2Oc2ccccc2)cc1OC
- IC50 (NCI-H460 [1]): > 10 µM
- IC50 (HGC-27): > 10 µM
- IC50 (PC-3 [2]): > 10 µM
- IC50 (4T1): > 10 µM
- IC50 (HeLa): > 10 µM
- IC50 (DU-145 [3]): > 10 µM

Structure (SMILES): COc1ccc(/C=C/C(=O)/C=C/c2cc3ccccc3nc2Oc2ccc(Br)cc2)cc1
- IC50 (NCI-H460 [1]): > 10 µM
- IC50 (HGC-27): > 10 µM
- IC50 (PC-3 [2]): > 10 µM
- IC50 (4T1): > 10 µM
- IC50 (HeLa): > 10 µM
- IC50 (DU-145 [3]): > 10 µM
